Patent publication US9101588B2, “Composition for lowering blood uric acid level” (TAISHO PHARMACEUTICAL CO., LTD., priority 2009, dated 2015)

Columns and labels:
Assay type in all cases: in vivo, human
[1] = system: subjects thought to have hyperuricemia; assay: Test Example 3: randomized double blind test, serum uric acid level and uric acid clearance value, powder of Example 1 vs placebo, 14 days; details: 1 hour before administration at start vs 3 hours before administration at completion, 2000 mg taurine twice a day, FIG. 1
[2] = system: subjects thought to have lifestyle diseases; assay: Test Example 1: randomized double blind test, change in uric acid level, powder of Example 1 vs placebo, 14 days; details: for uric acid level degree changed MAX / uric acid level degree changed MEDIAN / uric acid level degree changed MIN / uric acid level degree changed MEAN: start to completion
Description: (§1) Forty subjects who were 20 years old or older and thought to have lifestyle diseases under the following conditions were grouped into 2 each consisting of 20 subjects. A placebo and the powder prepared in Example 1 were administered to the respective groups twice a day by 2.04 g (2000 mg in terms of taurine amount) in a single dose for 14 days. The change in the uric acid level was checked by a randomized double blind test.
Before this test was started, screening tests were conducted twice. Subjects who met all the conditions of Conditions 1 to 3 below in the first screening test were subjected to the second screening. Further, since the amount of taurine in the body seemed to influence the result of this test, subjects who met Condition 4 in addition to Conditions 1 to 3 in the second screening test were subjected to this test. In each administration group, the result was sub-grouped with a benchmark of the uric acid level of 7.0 mg/dL which served as the index for hyperuricemia. The uric acid levels were compared between the groups.
Incidentally, one case which was assigned to the taurine-administered group was terminated because another disease occurred before the administration was started.
Condition 1: LDL cholesterol was 140 mg/dL or above
Condition 2: triglyceride was 150 mg/dL or above but below 400 mg/dL
Condition 3: total cholesterol was 220 mg/dL or above
Condition 4: an amount of urinary taurine excreted (in urine collected for 24 hours) was 1500 μmol or below
In addition, each administration group was sub-grouped with a benchmark of the uric acid level of 7.0 mg/dL at the start, and the percentage of change in the uric acid level was compared in each group.

[3] = system: subjects of Test Examples 1 to 3; assay: Taurine-administered cases of Test Examples 1 to 3 summed, degree of uric acid level changed; details: for uric acid level degree changed MAX / uric acid level degree changed MEDIAN / uric acid level degree changed MIN / uric acid level degree changed MEAN: start to completion; for mean value of uric acid level decreased by / median of uric acid level decreased by: Table 6
Description: Next, degrees of serum uric acid levels changed before and after the administration in the taurine-administered cases of Test Examples 1 to 3 were lined up in the order of subjects having higher levels before the administration.
Moreover, the taurine-administered cases of Test Examples 1 to 3 were summed and sub-grouped with a benchmark of the uric acid level of 7.0 mg/dL at the start. Degrees of uric acid levels changed were compared between the sub-groups.

[4] = system: subjects thought to have hyperuricemia; assay: Test Example 3: randomized double blind test, serum uric acid level and uric acid clearance value, powder of Example 1 vs placebo, 14 days
Description: as §1, with “Sixteen subjects” for “Forty subjects”, “have hyperuricemia” for “have lifestyle diseases”, “of 8” for “of 20”
Before this test was started, screening tests were conducted twice. Subjects who met the condition of Condition below in the first screening test were subjected to the second screening. Subjects who met Condition again in the second screening test were subjected to this test. Furthermore, in this test, in order to check the change in a uric acid clearance value that would influence the change in the uric acid level, the uric acid level and the uric acid clearance value were measured four times, that is, 1 hour before administration, 1 hour after administration, 2 hours after administration, and 3 hours after administration when the taurine administration was started as well as similarly four times when the administration was completed. It should be noted that in order to make conditions equal between when the administration was started and when completed, the subjects were stayed in a hospital 3 days and 2 nights before each measurement, and had the same meals.
Incidentally, one case which was assigned to the taurine-administered group was terminated because another disease occurred during the 14-day administration period.
Condition: serum uric acid level was 7.0 mg/dL or above but below 9.0 mg/dL
In addition, as in Test Examples 1 and 2, each administration group was sub-grouped with a benchmark of the uric acid level of 7.0 mg/dL at the start. The percentage of change in the uric acid level was compared in each group.
Next, the change (ratio of change) in the uric acid clearance value, when the administration was started, representing uric acid-excretion efficiency was compared between the administration groups.
Moreover, the change (ratio of change) in the uric acid clearance value when the administration was completed was also compared between the administration groups.

[5] = start level 7.0 mg/dL or above, 8 cases
[6] = start level 7.0 mg/dL or above, 8 cases, at completion (14 days)
[7] = start level 7.0 mg/dL or above, 8 cases, at start
[8] = start level below 7.0 mg/dL, 11 cases
[9] = start level below 7.0 mg/dL, 11 cases, at completion (14 days)
[10] = start level below 7.0 mg/dL, 11 cases, at start
[11] = subjects with uric acid level 7.0 mg/dL or above, Table 1
[12] = subjects with uric acid level below 7.0 mg/dL, Table 1
[13] = start level 7.0 mg/dL or above, 60 cases, at completion
[14] = start level 7.0 mg/dL or above, 60 cases, at start
[15] = start level 7.0 mg/dL or above, 60 cases
[16] = start level below 7.0 mg/dL, 87 cases, at completion
[17] = start level below 7.0 mg/dL, 87 cases, at start
[18] = start level below 7.0 mg/dL, 87 cases
[19] = subjects with uric acid level 7.0 mg/dL or above
[20] = subjects with uric acid level below 7.0 mg/dL
[21] = start level 7.0 mg/dL or above, 4 cases
[22] = start level below 7.0 mg/dL, 3 cases

NCCS(=O)(=O)O [Taurine, aminoethylsulfonic acid]
mean value of serum uric acid level decreased by [1]: 0.53 mg/dL
Change in uric acid level: subjects who did not show decrease [2, 5]: 0 (0.0) ( ): %
Change in uric acid level: subjects who showed decrease [2, 5]: 8 (100.0) ( ): %
uric acid level MAX [2, 6]: 8.3 mg/dL
uric acid level MEAN [2, 6]: 7.36 mg/dL
uric acid level MEDIAN [2, 6]: 7.50 mg/dL
uric acid level MIN [2, 6]: 6.4 mg/dL
uric acid level MAX [2, 7]: 9.1 mg/dL
uric acid level MEDIAN [2, 7]: 8.30 mg/dL
uric acid level MIN [2, 7]: 7.0 mg/dL
uric acid level MEAN ([2]; start level 7.0 mg/dL or above, 8 cases, at start, 2000 mg taurine twice a day, 14 days): 8.11 mg/dL
Change in uric acid level: subjects who showed decrease ([2]; start level 7.0 mg/dL or above, 8 cases, listed as taurine): 8 ( ): %
uric acid level degree changed MAX [2, 5]: -0.3 mg/dL
uric acid level degree changed MEDIAN [2, 5]: -0.70 mg/dL
uric acid level degree changed MIN [2, 5]: -1.3 mg/dL
uric acid level degree changed MEAN ([2]; start level 7.0 mg/dL or above, 8 cases, one-sample t-test P < 0.001): -0.75 mg/dL
two-sample t-test estimation: difference in degree changed, taurine group vs placebo group ([2]; start level 7.0 mg/dL or above, 95% CI −1.42 to −0.15, P = 0.020): −0.78[−1.42 mg/dL
Change in uric acid level: subjects who did not show decrease [2, 8]: 6 (54.5) ( ): %
Change in uric acid level: subjects who showed decrease [2, 8]: 5 (45.5) ( ): %
uric acid level MAX [2, 9]: 6.5 mg/dL
uric acid level MEAN [2, 9]: 5.49 mg/dL
uric acid level MEDIAN [2, 9]: 5.9 mg/dL
uric acid level MIN [2, 9]: 1.1 mg/dL
uric acid level MAX [2, 10]: 6.8 mg/dL
uric acid level MEAN [2, 10]: 5.54 mg/dL
uric acid level MEDIAN [2, 10]: 5.9 mg/dL
uric acid level MIN [2, 10]: 0.8 mg/dL
uric acid level degree changed MAX [2, 8]: 0.5 mg/dL
uric acid level degree changed MEDIAN [2, 8]: 0.1 mg/dL
uric acid level degree changed MIN [2, 8]: -0.9 mg/dL
uric acid level degree changed MEAN ([2]; start level below 7.0 mg/dL, 11 cases, one-sample t-test P = 0.747): -0.05 mg/dL
two-sample t-test estimation: difference in degree changed, taurine group vs placebo group ([2]; start level below 7.0 mg/dL, 95% CI −0.44 to 0.18, P = 0.386): −0.13[−0.44 mg/dL
mean value of uric acid level decreased by [2, 11]: 0.75 mg/dL
median of uric acid level decreased by [2, 11]: 0.70 mg/dL
mean value of uric acid level decreased by [2, 12]: 0.05 mg/dL
median of uric acid level increased by [2, 12]: 0.1 mg/dL
two-sample t-test estimation: difference in degree changed between sub-groups ([2]; taurine group, 7.0 mg/dL or above vs below 7.0 mg/dL, 95% CI −1.09 to −0.31, P = 0.001): −0.70[−1.09 mg/dL
two-sample t-test estimation: difference in degree changed between sub-groups ([3]; 7.0 mg/dL or above vs below 7.0 mg/dL, 95% CI −0.69 to −0.30, P < 0.001): −0.49[−0.69 mg/dL
uric acid level after oral administration (conclusion) ([3]; results of Test Examples 1 to 3): significant decrease
uric acid level MAX [3, 13]: 10.6 mg/dL
uric acid level MEAN [3, 13]: 7.33 mg/dL
uric acid level MEDIAN [3, 13]: 7.35 mg/dL
uric acid level MIN [3, 13]: 4.6 mg/dL
uric acid level MAX [3, 14]: 10.8 mg/dL
uric acid level MEDIAN [3, 14]: 7.80 mg/dL
uric acid level MIN [3, 14]: 7.0 mg/dL
uric acid level MEAN ([3]; start level 7.0 mg/dL or above, 60 cases, at start, Test Examples 1 to 3 summed): 7.95 mg/dL
uric acid level degree changed MAX [3, 15]: 0.7 mg/dL
uric acid level degree changed MEDIAN [3, 15]: -0.60 mg/dL
uric acid level degree changed MIN [3, 15]: -2.6 mg/dL
uric acid level degree changed MEAN ([3]; start level 7.0 mg/dL or above, 60 cases, one-sample t-test P < 0.001): -0.62 mg/dL
uric acid level MAX [3, 16]: 7.6 mg/dL
uric acid level MEAN [3, 16]: 5.54 mg/dL
uric acid level MEDIAN [3, 16]: 5.5 mg/dL
uric acid level MIN [3, 16]: 1.1 mg/dL
uric acid level MAX [3, 17]: 6.9 mg/dL
uric acid level MEAN [3, 17]: 5.67 mg/dL
uric acid level MEDIAN [3, 17]: 5.8 mg/dL
uric acid level MIN [3, 17]: 0.8 mg/dL
uric acid level degree changed MAX [3, 18]: 1.0 mg/dL
uric acid level degree changed MEDIAN [3, 18]: -0.1 mg/dL
uric acid level degree changed MIN [3, 18]: -1.6 mg/dL
uric acid level degree changed MEAN ([3]; start level below 7.0 mg/dL, 87 cases, one-sample t-test P = 0.028): -0.13 mg/dL
mean value of uric acid level decreased by [3, 19]: 0.62 mg/dL
median of uric acid level decreased by [3, 19]: 0.60 mg/dL
mean value of uric acid level decreased by [3, 20]: 0.13 mg/dL
median of uric acid level decreased by [3, 20]: 0.1 mg/dL
Change in uric acid level: subjects who did not show decrease [4, 21]: 0 (0.0) ( ): %
Change in uric acid level: subjects who showed decrease [4, 21]: 4 (100.0) ( ): %
Change in uric acid level: subjects who showed decrease ([4]; start level 7.0 mg/dL or above, 4 cases, listed as taurine): 4 ( ): %
Change in uric acid level: subjects who did not show decrease [4, 22]: 1 (33.3) ( ): %
Change in uric acid level: subjects who showed decrease [4, 22]: 2 (66.7) ( ): %
uric acid clearance value, mean ratio of change (increase) ([4]; when the administration was completed, 2 hours after the administration, FIG. 3): ≥ 30%
uric acid clearance value, mean ratio of change (increase) ([4]; when the administration was completed, 3 hours after the administration, FIG. 3): ≥ 20%
uric acid clearance value, mean ratio of change (increase) ([4]; when the administration was started, 2 hours after the administration, FIG. 2): ≥ 40%
uric acid clearance value, mean ratio of change (increase) ([4]; when the administration was started, 3 hours after the administration, FIG. 2): ≥ 30%
